Data on 6 molecules can be found in US7037644B1, “Means and methods for monitoring non-nucleoside reverse transcriptase inhibitor antiretroviral therapy and guiding therapeutic decisions in the treatment of HIV/AIDS” (ViroLogic, Inc., priority 1998, dated 2006).

The subject of the first test is RTV-268, patient 97-268 (RT M41L, D67N, M184V, L210W, T215Y, K219Q, P236L). Briefly: Phenotypic susceptibility assay (patient RTV). Type of test: cell-based, HIV-1. Conditions: patient virus RTV-268 vs reference virus. From the text: The resistance test vectors containing a functional luciferase gene cassette were constructed and host cells were transfected with the resistance test vector DNA. The resistant test vectors contained patient-derived reverse transcriptase and protease sequences that were either susceptible or resistant to the antiretroviral agents, such as nucleoside reverse transcriptase inhibitors, non-nucleoside reverse transcriptase inhibitors and protease inhibitors. The resistance test vector viral particles produced by transfecting the resistance test vector DNA into host cells, either in the presence or absence of protease inhibitors, were used to infect target host cells grown either in the absence of NRTI or NNRTI or in the presence of increasing concentrations of the drug. The amount of luciferase activity produced in infected target host cells in the presence of drug was compared to the amount of luciferase produced in infected target host cells in the absence of drug. Drug resistance was measured as the amount of drug required to inhibit by 50% the luciferase activity detected in the absence of drug (inhibitory concentration 50%, IC50). The IC50 values were determined by plotting percent drug inhibition vs. log10 drug concentration.
Host cells were seeded in 10-cm-diameter dishes and were transfected several days after plating with resistance test vector plasmid DNA and the envelope expression vector. Transfections were performed using a calcium-phosphate precipitation procedure. The cell culture media containing the DNA precipitate was replaced with fresh medium, from one to 24 hours, after transfection. Cell culture media containing resistance test vector viral particles was harvested one to four days after transfection and was passed through a […] filter before being stored at […]. HIV capsid protein (p24) levels in the harvested cell culture media were determined by an EIA method as described by the manufacturer (SIAC; Frederick, Md.). Before infection, target cells (293 and 293/T) were plated in cell culture media. Control infections were performed using cell culture media from mock transfections (no DNA) or transfections containing the resistance test vector plasmid DNA without the envelope expression plasmid. One to three or more days after infection the media was removed and cell lysis buffer (Promega) was added to each well. Cell lysates were assayed for luciferase activity (FIG. 3). The inhibitory effect of the drug was determined using the following equation: % luciferase inhibition=1−(RLUluc [drug]÷RLUluc)×100 where RLUluc [drug] is the relative light unit of luciferase activity in infected cells in the presence of drug and RLUluc is the Relative Light Unit of luciferase activity in infected cells in the absence of drug. IC50 values were obtained from the sigmoidal curves that were generated from the data by plotting the percent inhibition of luciferase activity vs. the log10 drug concentration. The drug inhibition curves are shown in (FIG. 3).
A resistance test vector was constructed as described in Example 1 from a patient sample designated 97-268. This patient had been treated with AZT and 3TC (NRTIs), indinavir and saquinavir (PRIs) and delavirdine (an NNRTI) for periods varying from 1 month to 2 years. Isolation of viral RNA and RT/PCR was used to generate a patient derived segment that comprised viral sequences coding for all of PR and amino acids 1-313 of RT. The patient derived segment was inserted into a indicator gene viral vector to generate a resistance test vector designated RTV-268. RTV-268 was then tested using the phenotypic susceptibility assay to determine accurately and quantitatively the level of susceptibility to a panel of anti-retroviral drugs. This panel of anti-retroviral drugs comprised members of the classes known as NRTIs (AZT, 3TC, d4T, ddI and ddC), NNRTIs (delavirdine and nevirapine), and PRIs (indinavir, nelfinavir, ritonavir, and saquinavir). An IC50 was determined for each drug tested. […]
As to `O=c1[nH]cnc2c1ncn2[C@H]1CC[C@@H](CO)O1` [ddI], the “change in susceptibility” value is on record as “slight shifts in susceptibility”.
On the same count and under the same terms, then `Nc1ccn([C@H]2CC[C@@H](CO)O2)c(=O)n1` [ddC], with “slight shifts in susceptibility”.
For the molecule `Cc1cn([C@H]2C[C@H](N=[N+]=[N-])[C@@H](CO)O2)c(=O)[nH]c1=O` [AZT], the “change in susceptibility” value was “significant resistance”.
The same measure, in the same setting: then `Cc1cn([C@H]2C=C[C@@H](CO)O2)c(=O)[nH]c1=O` [d4T], with “slight shifts in susceptibility”; and `Nc1ccn([C@@H]2CS[C@H](CO)O2)c(=O)n1` [3TC], with “significant resistance”.

The test system of a further test is codon 181 mutant HIV-1.
Test: not given
Conditions: cited from earlier work.
As to `CCc1cc(CCc2nc3c(Cl)ccc(Cl)c3o2)c(=S)[nH]c1C` [L-702,019], the “change in IC between wild-type and codon 181 mutant HIV-1” value is on record as 3 fold.
